Source: patent publication US20060142241A1, “Methods and compositions for reducing neurodegeneration in amyotrophic lateral sclerosis” (priority 2004, published 2006)
≈ marks a conversion by molar mass, not a printed value.

Columns and labels:
[1] = in vitro; conditions: rat/mouse hybrid
Procedure: To evaluate the anti-apoptotic effect of solubilized UDCA against GSNO on wild type cells and cells containing G93A and A4V mutations in hSOD1, wildtype cells, G93A cells, and A4V cells were incubated with 500 μM GSNO for 24 h in order to induce apoptosis and then cell viability of was determined. These apoptosis-induced wildtype cells, G93A cells, and A4V cells were next incubated with 20 μM of solubilized UDCA for 24 h and cell viability was determined again using both the MTT assay and Trypan blue staining.
Cell culture: VSC 4.1. […]
MTT assay and trypan blue staining to evaluate the anti-apoptotic effects of solubilized UDCA and its results; 3-(4,5-dimethylthiazol-2-yl)-2,5-diphenyltetrazolium bromide (MTT) is absorbed into cells and converted to formazan by the action of mitochondrial succinate dehydrogenase. […] Finally, optical density (OD) was read at 540 nm on the ELISA plate reader after particles in the well were dissolved by a microplate mixer for 10 min. Results were calibrated using OD measured without cell culture. […] Unstained live cells were counted on a haemocytometer. Cell viability was expressed as percentages of the cell survival.

[2] = tested on: A4V cells (VSC 4.1, mutant human Cu/Zn SOD-1); experiment: DAPI staining to evaluate apoptosis by GSNO; format: cell-based; conditions: 500 μM GSNO, 24 h
Procedure: (§1) DAPI staining to evaluate apoptosis by GSNO and its results; 4′,6-Diamidino-2-phenylindole dihydrochloride (DAPI) staining was performed to evaluate apoptosis as follows. After differentiation, the wildtype (control), G93A, and A4V cells were incubated with without 500 μM GSNO for 24 h; the cells were then centrifuged at 265 g for 2 min, and 4% neutral buffered formalin (100 μL) was added to the cell pellet. A 50 μL aliquot of the cell suspension was applied to a glass slide and dried at room temperature. The fixed cells were washed in PBS, air dried, and stained for 20 min with the DNA-specific fluorochrome, DAPI (Sigma, Saint Louis, Mo., USA). The adhered cells were rinsed with PBS, air dried, and mounted with 90% glycerol. The slides were observed under Olympus fluorescence microscopy(pictures).

[3] = tested on: G93A cells (VSC 4.1, mutant human Cu/Zn SOD-1); experiment: DAPI staining to evaluate apoptosis by GSNO; format: cell-based; conditions: 500 μM GSNO, 24 h
Procedure: as §1

[4] = tested on: wild type cells (VSC 4.1, wild type human Cu/Zn SOD-1); experiment: DAPI staining to evaluate apoptosis by GSNO; format: cell-based; conditions: 500 μM GSNO, 24 h
Procedure: as §1

[5] = protonated form; cited from earlier work
[6] = oral administration; cited from earlier work

Compound	viability at 24 h, 500 μM [1] [%]	percent of apoptotic cells [2] [%]	percent of apoptotic cells [3] [%]	percent of apoptotic cells [4] [%]	solubility [5]	fraction of an ingested dose absorbed in the colon [6] [%]
N[C@@H](CCC(=O)N[C@@H](CSN=O)C(=O)NCC(=O)O)C(=O)O [GSNO, S-nitrosoglutathione]	81	25	19	8	–	–
C[C@H](CCC(=O)NCCS(=O)(=O)O)[C@H]1CC[C@H]2[C@@H]3[C@@H](O)C[C@@H]4C[C@H](O)CC[C@]4(C)[C@H]3CC[C@]12C [TUDCA, tauroursodeoxycholic acid]	–	–	–	–	450 µM (≈ 225 µg/mL)	–
C[C@H](CCC(=O)O)[C@H]1CC[C@H]2[C@@H]3[C@@H](O)C[C@@H]4C[C@H](O)CC[C@]4(C)[C@H]3CC[C@]12C [UDCA, Ursodeoxycholic acid]	–	–	–	–	about 0.05 mM	20
